# The supplement of paper PMC10307832
# Tests used:
# Experiment in all cases: relative viability (nuclei count vs DMSO), 5 days (fraction); higher = more cells survive
# [1] = compound: CN[C@@H]1C[C@H]2O[C@@](C)([C@@H]1OC)n1c3ccccc3c3c4c(c5c6ccccc6n2c5c31)C(=O)NC4 [Staurosporine] + C[C@]1(O)C[C@@H](c2nc(-c3ccc4ccc(-c5ccccc5)nc4c3)c3c(N)nccn32)C1 [Linsitinib] (partner 1 µM)
# Outline: (§1)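 One day after seeding in 1536-well plates, lung cancer cell lines were dosed by pin tool. Dosing was either single-drug or a fixed anchor-drug dose plus five library-drug doses (not always all listed) in √10 steps. After 5 days, nuclei were stained in one fix-and-stain step and counted on 4× images, and relative viability is the nuclei count of treated wells over that of vehicle wells, given as the median of duplicate plates.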
# 5-Fluorouracil + OSI-027 = compound: O=c1[nH]cc(F)c(=O)[nH]1 [5-Fluorouracil] + COc1cccc2cc(-c3nc([C@H]4CC[C@H](C(=O)O)CC4)n4ncnc(N)c34)[nH]c12 [OSI-027] (partner 0.5 µM)
# Outline: as §1
# 5-Fluorouracil + AZD7762 = compound: O=c1[nH]cc(F)c(=O)[nH]1 [5-Fluorouracil] + NC(=O)Nc1cc(-c2cccc(F)c2)sc1C(=O)N[C@H]1CCCNC1 [AZD7762] (partner 0.2 µM)
# Outline: as §1
# [2] = compound: O=c1[nH]cc(F)c(=O)[nH]1 [5-Fluorouracil] + Nc1nc2[nH]cc(CCc3ccc(C(=O)N[C@@H](CCC(=O)O)C(=O)O)cc3)c2c(=O)[nH]1 [Pemetrexed] (partner 0.2 µM)
# Outline: as §1
Cell Line,relative viability ([1]; first compound 0.005 µM),relative viability ([1]; first compound 0.05 µM),relative viability ([1]; first compound 0.1581 µM),relative viability ([1]; first compound 0.5 µM),relative viability (5-Fluorouracil + OSI-027; first compound 0.02 µM),relative viability (5-Fluorouracil + OSI-027; first compound 0.2 µM),relative viability (5-Fluorouracil + OSI-027; first compound 0.6325 µM),relative viability (5-Fluorouracil + OSI-027; first compound 2 µM),relative viability (5-Fluorouracil + AZD7762; first compound 0.02 µM),relative viability (5-Fluorouracil + AZD7762; first compound 0.2 µM),relative viability (5-Fluorouracil + AZD7762; first compound 0.6325 µM),relative viability (5-Fluorouracil + AZD7762; first compound 2 µM),relative viability ([2]; first compound 0.02 µM),relative viability ([2]; first compound 0.2 µM),relative viability ([2]; first compound 0.6325 µM),relative viability ([2]; first compound 2 µM),relative viability ([1]; first compound 0.01581 µM)
NCI-H1944,1.39,0.696,0.472,0.367,0.48,0.423,0.296,0.188,0.475,0.199,0.106,0.0961,0.523,0.527,0.249,0.179,
PC-14,0.892,0.0982,0.0802,0.0859,0.876,0.976,0.747,0.296,0.361,0.431,0.389,0.278,0.128,0.14,0.147,0.18,0.633
HCC-827,0.992,0.726,0.769,0.624,0.767,0.832,0.681,0.391,0.164,0.178,0.166,0.147,0.238,0.239,0.273,0.262,0.853
HCC-366,0.623,0.0843,0.0298,0.013,1.18,0.868,0.439,0.144,0.354,0.308,0.119,0.0755,0.142,0.145,0.0984,0.123,
HARA,0.762,0.155,0.0968,0.0872,0.475,0.737,0.559,0.308,0.411,0.32,0.4,0.211,0.244,0.231,0.212,0.289,0.192
NCI-H441,0.304,0.153,0.153,0.141,0.779,0.523,0.322,0.326,1.18,0.857,0.402,0.317,0.262,0.27,0.235,0.239,0.126
LXF-289,0.846,0.203,0.1,0.0809,0.808,0.612,0.356,0.258,1.1,0.495,0.342,0.313,0.807,0.704,0.494,0.363,
CAL-12T,0.57,0.213,0.136,0.115,0.771,0.625,0.385,0.352,0.685,0.588,0.421,0.421,1.19,1,0.942,0.657,0.334
NCI-H2405,0.214,0.113,0.0901,0.0874,0.633,0.661,0.701,0.604,0.813,0.86,0.684,0.494,1.11,1.12,1.07,0.535,0.127
PC-3 [JPC-3],0.986,0.723,0.559,0.478,0.824,0.805,0.726,0.625,0.815,0.855,0.908,0.816,0.987,1.02,1.02,0.751,
NCI-H1666,0.475,0.322,0.238,0.221,0.869,0.551,0.488,0.508,0.708,0.389,0.462,0.426,0.922,0.763,0.61,0.548,0.42
NCI-H2087,0.71,0.356,0.296,0.153,0.555,0.563,0.464,0.346,1.42,1.01,0.606,0.408,0.624,0.593,0.609,0.588,0.712
NCI-H596,1.34,0.854,0.385,0.148,0.832,0.82,0.623,0.337,1.23,0.981,0.371,0.356,0.547,0.524,0.486,0.435,0.854
LCLC-103H,1.25,0.352,0.206,0.212,0.503,0.59,0.379,0.311,0.734,0.758,0.546,0.381,0.481,0.413,0.464,0.384,0.717
HCC-15,0.921,0.656,0.444,0.276,0.781,0.718,0.442,0.311,1.28,1.2,0.448,0.39,0.219,0.217,0.21,0.218,
H3255,0.814,0.303,0.226,0.116,0.609,0.686,0.699,0.574,0.98,0.949,0.696,0.567,0.557,0.6,0.557,0.449,0.549
NCI-H1915,1.11,0.61,0.486,0.342,0.561,0.616,0.591,0.525,0.409,0.683,0.643,0.577,0.395,0.542,0.421,0.419,
NCI-H650,0.472,0.249,0.197,0.177,0.493,0.357,0.362,0.267,0.883,0.464,0.328,0.422,0.762,0.649,0.36,0.317,0.289
NCI-H2126,0.797,0.461,0.376,0.366,0.589,0.39,0.302,0.365,0.995,0.249,0.209,0.256,0.647,0.435,0.38,0.304,0.553
